Laboratory results from ChEMBL document CHEMBL1148257, “The significant effect of the carbohydrate structures on the DNA photocleavage of the quinoxaline-carbohydrate hybrids” (Bioorg Med Chem Lett, 2004).

How the values were obtained:
Nucleic Acid = assay: Concentrations of compound at which 50% Form I DNA was converted into Form II DNA of Phi X 174; format: functional
HeLa [1] = assay: Cytotoxicity of compound against HeLa S3 cells without photoirradiation; format: functional, cell-based; settings: Homo sapiens, light or radiation study
HeLa [2] = assay: Cytotoxicity of compound against HeLa S3 cells exposed to compound for 72 hr with 1 hr photoirradiation; settings: Homo sapiens, light or radiation study

| SMILES | CC50 (Nucleic Acid) [µM] | IC50 (HeLa [1]) [µM] | IC50 (HeLa [2]) [µM] |
| --- | --- | --- | --- |
| CC1O[C@H](OC2C(O)C[C@H](OCCOC(=O)c3cnc4ccccc4n3)OC2C)CC(N)C1O (some centres undefined) | 43 | > 100 | 6 |
| CC1O[C@H](OC2C(O)C[C@@H](OCCOC(=O)c3cnc4ccccc4n3)OC2C)CC(N)C1O (some centres undefined) | 160 | – | – |
